# pKd: −log10 of the molar value.
# How the values were obtained:
# [1] = target: T1, ERα-LBD (estrogen receptor, ER) (Homo sapiens, UniProt P03372); test: ITC (reverse titration, purified ERα-LBD); type: binding
# T1 construct: gene ESR1; ERα-LBD (aa 298–554)
# T1 sequence (P03372 298-554): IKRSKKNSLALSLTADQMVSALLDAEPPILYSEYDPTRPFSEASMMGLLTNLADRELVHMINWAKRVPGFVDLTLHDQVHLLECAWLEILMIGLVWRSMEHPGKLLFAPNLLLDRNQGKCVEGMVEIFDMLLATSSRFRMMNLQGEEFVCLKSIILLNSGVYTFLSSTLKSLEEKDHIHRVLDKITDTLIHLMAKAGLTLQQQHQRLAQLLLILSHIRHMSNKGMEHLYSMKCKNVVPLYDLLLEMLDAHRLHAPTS
# VHL = target: T2, VHL (Homo sapiens, UniProt P40337); test: ITC (reverse titration, purified VCB complex); type: binding
# T2 construct: VHL (aa 54-213) in His-tagged VCB complex with EloB (aa 1-104) and EloC (aa 1-112); with EloB and EloC (VCB complex)
# T2 sequence (P40337 54-213): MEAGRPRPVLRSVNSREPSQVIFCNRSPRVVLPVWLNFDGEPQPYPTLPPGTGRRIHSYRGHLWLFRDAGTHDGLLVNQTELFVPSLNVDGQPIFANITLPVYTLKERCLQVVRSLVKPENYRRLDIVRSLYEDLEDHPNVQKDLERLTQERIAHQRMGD
# T2 sequence (Q15370 1-104 partner): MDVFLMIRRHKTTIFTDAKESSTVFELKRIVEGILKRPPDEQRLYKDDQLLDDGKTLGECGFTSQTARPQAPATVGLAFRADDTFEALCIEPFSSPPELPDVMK
# T2 sequence (Q15369 whole entry partner, the tested form may be a part): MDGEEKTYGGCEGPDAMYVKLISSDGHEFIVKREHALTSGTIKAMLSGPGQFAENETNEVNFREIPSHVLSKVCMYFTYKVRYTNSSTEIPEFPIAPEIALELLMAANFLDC
compound,measurement,setting,value
Cc1ncsc1-c1ccc(CNC(=O)[C@@H]2C[C@@H](O)CN2C(=O)[C@@H](NC(=O)CCCCCCCCCC(=O)NCCOc2ccc(C(=C(CCCl)c3ccccc3)c3ccc(O)cc3)cc2)C(C)(C)C)cc1 [PROTAC 8],pKd,[1],5.67
same,pKd,VHL,5.36

# Reference: publication PMC9681730, “DeepPROTACs is a deep learning-based targeted degradation predictor for PROTACs” (Nature Communications, 2022)
